Values joined by “and” are separate entries in the source; they are usually repeats but may differ in a detail not shown here. Equal values may be shown once.
How the values were obtained:
[1] = 101 kPa, Liquid
[2] = xn = mol fraction of the nth substance listed; conditions: 101 kPa, Liquid

C1C[C@@H]2[C@H]3CC[C@H](C3)[C@@H]2C1 [exo-tetrahydrodicyclopentadiene]
[1]
Conditions | mass density [kg/m3] | viscosity
293.15 K | 935.3 | 3.076 mPa·s and 3.077 mPa·s
298.15 K | 931.4 | 2.784 mPa·s
303.15 K | 927.5 | 2.525 mPa·s
313.15 K | 919.6 | 2.112 mPa·s

CCCCCCCCCCC [undecane] + C1C[C@@H]2[C@H]3CC[C@H](C3)[C@@H]2C1
[2], x1 = 1
Conditions | mass density [kg/m3] | viscosity [mPa·s]
293.15 K | 740.4 | 1.199
298.15 K | 736.7 | 1.099
303.15 K | 733 | 1.022
313.15 K | 725.6 | 0.878

CCCCCCCCCCCCCC [tetradecane] + C1C[C@@H]2[C@H]3CC[C@H](C3)[C@@H]2C1
[2], x1 = 1
Conditions | mass density [kg/m3] | viscosity [mPa·s]
293.15 K | 762.9 | 2.346
298.15 K | 759.2 | 2.107
303.15 K | 755.7 | 1.897
313.15 K | 748.6 | 1.594

CCCCCCCCCCC [undecane]
[1]
Conditions | mass density [kg/m3] | viscosity [mPa·s]
293.15 K | 740.4 | 1.199
298.15 K | 736.7 | 1.099
303.15 K | 733 | 1.022
313.15 K | 725.6 | 0.878

C1C[C@@H]2[C@H]3CC[C@H](C3)[C@@H]2C1 [exo-tetrahydrodicyclopentadiene] + CCCCCCCCCCC
[2]
Conditions | mass density, 293.15 K [kg/m3] | mass density, 298.15 K [kg/m3] | mass density, 303.15 K [kg/m3] | mass density, 313.15 K [kg/m3] | viscosity, 293.15 K [mPa·s] | viscosity, 298.15 K [mPa·s] | viscosity, 303.15 K [mPa·s] | viscosity, 313.15 K [mPa·s]
x2 = 0 | 935.3 | 931.4 | 927.5 | 919.6 | 3.076 | 2.784 | 2.525 | 2.112
x2 = 0.0881 | 911.7 | 907.8 | 903.9 | 896.1 | 2.697 | 2.439 | 2.228 | 1.856
x2 = 0.1777 | 889.3 | 885.4 | 881.6 | 873.8 | 2.39 | 2.162 | 1.982 | 1.662
x2 = 0.2711 | 867.6 | 863.7 | 859.9 | 852.1 | 2.135 | 1.937 | 1.78 | 1.499
x2 = 0.3669 | 846.8 | 843 | 839.2 | 831.5 | 1.921 | 1.751 | 1.615 | 1.362
x2 = 0.4654 | 827 | 823.1 | 819.3 | 811.7 | 1.747 | 1.594 | 1.47 | 1.246
x2 = 0.5658 | 808.2 | 804.4 | 800.6 | 793 | 1.608 | 1.47 | 1.359 | 1.158
x2 = 0.6685 | 790.3 | 786.6 | 782.8 | 775.2 | 1.483 | 1.358 | 1.256 | 1.074
x2 = 0.778 | 772.6 | 768.9 | 765.2 | 757.7 | 1.373 | 1.259 | 1.167 | 1
x2 = 0.8855 | 756.5 | 752.7 | 749 | 741.6 | 1.284 | 1.177 | 1.093 | 0.941

CCCCCCCCCCCCCC [tetradecane]
[1]
Conditions | mass density [kg/m3] | viscosity [mPa·s]
293.15 K | 762.9 | 2.346
298.15 K | 759.2 | 2.107
303.15 K | 755.7 | 1.897
313.15 K | 748.6 | 1.594

C1C[C@@H]2[C@H]3CC[C@H](C3)[C@@H]2C1 [exo-tetrahydrodicyclopentadiene] + CCCCCCCCCCCCCC
[2]
Conditions | mass density, 293.15 K [kg/m3] | mass density, 298.15 K [kg/m3] | mass density, 303.15 K [kg/m3] | mass density, 313.15 K [kg/m3] | viscosity, 293.15 K [mPa·s] | viscosity, 298.15 K [mPa·s] | viscosity, 303.15 K [mPa·s] | viscosity, 313.15 K [mPa·s]
x2 = 0 | 935.3 | 931.4 | 927.5 | 919.6 | 3.077 | 2.784 | 2.525 | 2.112
x2 = 0.0703 | 914.6 | 910.8 | 906.9 | 899.2 | 2.961 | 2.679 | 2.429 | 2.034
x2 = 0.1451 | 894.8 | 891 | 887.1 | 879.5 | 2.857 | 2.582 | 2.343 | 1.958
x2 = 0.2274 | 875.5 | 871.7 | 868 | 860.4 | 2.766 | 2.496 | 2.259 | 1.888
x2 = 0.2692 | 866.5 | 862.7 | 859 | 851.4 | 2.724 | 2.456 | 2.223 | 1.857
x2 = 0.4088 | 839.5 | 835.8 | 832.1 | 824.7 | 2.609 | 2.35 | 2.125 | 1.777
x2 = 0.5067 | 823.2 | 819.5 | 815.9 | 808.5 | 2.544 | 2.291 | 2.072 | 1.734
x2 = 0.616 | 807 | 803.4 | 799.8 | 792.5 | 2.487 | 2.243 | 2.028 | 1.698
x2 = 0.7324 | 791.7 | 788.2 | 784.6 | 777.4 | 2.438 | 2.197 | 1.983 | 1.663
x2 = 0.8606 | 776.9 | 773.4 | 769.8 | 762.7 | 2.39 | 2.151 | 1.94 | 1.629
